The subject of test [1] is HL-60. Description: Cell cycle arrest in human HL60 cells assessed as accumulation at G0/G1 phase at 10 uM after 72 hrs by propidium iodide staining-based flow cytometry (reference value: 65.7 +/- 0.1%). The format is functional. (Flow cytometry measures light scatter and fluorescence of single cells or particles in a stream.)
For test [2], the system named is HL-60. Briefly: Cell cycle arrest in human HL60 cells assessed as accumulation at G0/G1 phase at 50 uM after 72 hrs by propidium iodide staining-based flow cytometry (reference value: 65.7 +/- 0.1%). The format is functional.
In test [3] the test system is HL-60. Briefly: Cell cycle arrest in human HL60 cells assessed as accumulation at S phase at 1 uM after 72 hrs by propidium iodide staining-based flow cytometry (reference value: 16.4 +/- 0.8%). The format is functional.
The test system of test [4] is HL-60. Description: Cell cycle arrest in human HL60 cells assessed as accumulation at S phase at 50 uM after 72 hrs by propidium iodide staining-based flow cytometry (reference value: 16.4 +/- 0.8%). The format is functional.
The test system of test [5] is HL-60. Briefly: Cell cycle arrest in human HL60 cells assessed as accumulation at G2/M phase at 25 uM after 72 hrs by propidium iodide staining-based flow cytometry (reference value: 14.8 +/- 0.7%). The format is functional.
Test [6] concerns HL-60. Description: Cell cycle arrest in human HL60 cells assessed as accumulation at Gn phase at 10 uM after 48 hrs by propidium iodide staining-based flow cytometry (reference value: 2.49 +/- 0.4%). The format is functional.
The test system of test [7] is HL-60. Briefly: Cell cycle arrest in human HL60 cells assessed as accumulation at Gn phase at 50 uM after 48 hrs by propidium iodide staining-based flow cytometry (reference value: 2.49 +/- 0.4%). The format is functional.
In test [8] the test system is HL-60. Briefly: Cell cycle arrest in human HL60 cells assessed as accumulation at Gn phase at 50 uM after 72 hrs by propidium iodide staining-based flow cytometry (reference value: 2.49 +/- 0.3%). The format is functional.
In test [9] the target is Serine/threonine-protein kinase B-raf (Homo sapiens) (UniProt P15056). Description: Competitive binding to B-RAF kinase (unknown origin) at 100 nM to 100 uM after 60 to 120 mins by FRET analysis.
Test [10] relates to HL-60. Description: Cytotoxicity against human HL60 cells after 72 hrs by Alamar Blue assay. The format is functional, cell-based. Conditions: HL-60, 72 h. A general note: The colour change of resazurin is a common sign of viable cells or microbes.
Test [11] relates to HL-60. Briefly: Cell cycle arrest in human HL60 cells assessed as accumulation at pre-G1 phase at 25 uM after 48 hrs by propidium iodide staining-based flow cytometry (reference value: 0.17%). The format is functional.
The subject of test [12] is HL-60. Briefly: Cell cycle arrest in human HL60 cells assessed as accumulation at pre-G1 phase at 10 uM after 72 hrs by propidium iodide staining-based flow cytometry (reference value: 0.14%). The format is functional.

pIC50: −log10 of the molar value. Active and inactive are the calls of the source. No cut-off for these calls is given here.

Usually pIC50 stands for −log10 of the IC50, conventionally taken in molar units.

Sequence of Serine/threonine-protein kinase B-raf (Homo sapiens) (P15056 whole entry): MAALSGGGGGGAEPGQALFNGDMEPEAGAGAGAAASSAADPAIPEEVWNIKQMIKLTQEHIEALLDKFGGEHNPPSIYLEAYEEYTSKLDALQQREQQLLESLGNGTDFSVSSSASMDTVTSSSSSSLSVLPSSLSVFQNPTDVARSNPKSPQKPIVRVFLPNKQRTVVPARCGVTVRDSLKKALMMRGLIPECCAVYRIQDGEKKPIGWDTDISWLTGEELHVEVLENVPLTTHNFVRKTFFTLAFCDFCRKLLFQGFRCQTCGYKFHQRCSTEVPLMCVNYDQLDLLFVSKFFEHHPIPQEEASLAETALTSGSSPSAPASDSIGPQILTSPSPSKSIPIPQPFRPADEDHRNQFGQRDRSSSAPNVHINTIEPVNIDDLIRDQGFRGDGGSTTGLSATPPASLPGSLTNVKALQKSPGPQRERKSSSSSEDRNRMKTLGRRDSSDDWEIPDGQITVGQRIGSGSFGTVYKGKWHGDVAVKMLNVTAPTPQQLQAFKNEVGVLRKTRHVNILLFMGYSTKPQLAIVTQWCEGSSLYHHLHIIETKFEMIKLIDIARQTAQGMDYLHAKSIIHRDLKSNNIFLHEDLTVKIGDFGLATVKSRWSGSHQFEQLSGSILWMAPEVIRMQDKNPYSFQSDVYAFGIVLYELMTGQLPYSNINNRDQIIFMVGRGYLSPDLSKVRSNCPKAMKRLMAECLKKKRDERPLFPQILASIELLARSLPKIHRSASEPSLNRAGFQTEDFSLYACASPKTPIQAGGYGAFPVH

Regarding `Cl.N=C(N)Nc1ccc(Oc2cccc(NC(=N)Nc3ccc(Cl)c(C(F)(F)F)c3)c2)cc1`, the Activity with HL-60 [1] was determined as 61.3%; in the test with HL-60 [2], 43.7%; in the test on HL-60 [3], 17.1%; with HL-60 [4], 14.4%; in the test on HL-60 [5] it was 12.9%; with HL-60 [6], 2.17%. Besides, the Activity in the test on HL-60 [7] is reported as 3.14%; in the test on HL-60 [8] it was 1.75%; in the test with HL-60 [11] it was 1.75%; with HL-60 [12] it was 0.23%. For the same molecule, in test [9], the outcome was inactive. In addition, the pIC50 in the test with HL-60 [10] is 5.01.

(Values after ChEMBL document CHEMBL3286227, “Guanidinium-based derivatives: searching for new kinase inhibitors” (Eur J Med Chem, 2014).)
